In patent US20160108135A1, “GHRELIN IN THE DIAGNOSIS OF CNS DISORDERS” (priority 2013, published 2016):
“Also recorded” adds a separate entry of the source. Ends that are not written are not given here. * marks the point of attachment. Octanoyl = CCCCCCCC(=O)*

Columns and labels:
[1] = system: dividing cells (Ki67+) in the sub-granular zone of the dentate gyrus; assay: Ki67 cell proliferation in hippocampal dentate gyrus of wild-type and ghsr-/- mice; assay type: in vivo; settings: i.v. 48 μg/day for 7 days; for Ki67+ cells (cell proliferation) in the DG of adult wild-type mice: vs saline
Method: To further examine the role of ghrelin in enhancing cell proliferation in the SGZ, the effect of peripherally administered ghrelin in both wild-type and ghrelin-receptor null (ghsr^−/−) mice (Zigman et al. J. Clin. Invest (2005)115 (12:3564-72)) was analysed.
Adult growth hormone secretagogue receptor (GHSR)-null mice (8-10 weeks-old) and their wild-type littermates were used. These were derived from crosses between animals that were heterozygous for the GHSR-null allele and that had been backcrossed >10 generations onto a C57BL6/J genetic background. Metabolic aspects of these mice have been published (Davies et al. 2009 Molecular Endocrinology, 23(6), 914-24.).
Ghrelin was administered peripherally via an intravenous osmotic mini-pump at a rate of 1 μl/hour with a total of 48 μg/day to groups of 6 mice. Control groups were given peripheral saline.
After 7 days, mice were killed by cervical dislocation whole brain was removed and immediately snap frozen on dry ice.
(§1) Cell proliferation in the hippocampal dentate gyms was subsequently analysed using a one-in-fifteen series of 10 μm sections (150 μm apart) from each animal. These were stained for Ki67 immunofluorescence and a primary antibody rabbit anti-Ki67 (1:500 Abcam) applied. Immunolabelled cells were counted throughout the rostro-caudal extent of the granule cell layer and quantified.
(§2) Immunolabelled cells were counted bilaterally using a ×40 objective (Zeiss Axioscope) throughout the rostro-caudal extent of the granule cell layer (GCL). Resulting numbers were divided by the number of coronal sections analyzed and multiplied by the distance between each section to obtain an estimate of the number of cells per hippocampus (and divided by 2 to obtain the total per dentate gyms).
All experiments and analyses were performed blind to genotype and treatment.
Statistical analyses were carried out using GraphPad Prizm 6.0 for Mac. Statistical significance was assessed by unpaired two-tailed Student's t-test or one-way ANOVA with Bonferroni's post-hoc test unless described otherwise: *, P<0.05; **, P<0.01; ***, P<0.001.
(§3) To determine whether unacylated-ghrelin (UAG) regulates NSPC plasticity, cell proliferation and immature neurons were quantified in wild-type mice following either peripheral administration of saline or UAG (i.v, 48 μg/day, n=6/group) for 7-days. The method was similar to that described in Example 1.

[2] = system: immature DCX+ neurons within the SGZ; assay: Immature DCX+ neurons in the SGZ of wild-type mice; assay type: in vivo; settings: i.v. 48 μg/day for 7 days, vs vehicle
From the text: as §1, §2, §3

Ghsr = settings: cited from earlier work
adult rat hippocampus = assay: BrdU+ cell proliferation in adult rat hippocampus after 7-day i.v. infusion (FIG. 1A); assay type: in vivo; settings: 7-day i.v. infusion 80 μg/day; BrdU 50 mg/kg i.p 30 minutes prior to brain collection; vs vehicle
[3] = system: spatial pattern separation; assay: Spontaneous location recognition (SLR) task, spatial pattern separation; assay type: in vivo, rat; settings: rats, 10 μg/kg i.p daily days 1-14, tested days 22-26
Method: A) Experimental paradigm B) Schematic of Spontaneous location recognition (SLR) task. During a sample phase animals were exposed to 3 identical objections (two were located close together (small separation) or very close together (X-small separation) and the 3rd was further away) for 10 minutes. 24 hours later the rats were exposed to 2 of the objects during the test phase and the time spent exploring each object was measured. Dotted objects indicate the original location during the sample phase. C) Discrimination ratios during the test phase for ‘novel’ conditions in the SLR task. […] D) Representative images of the new adult-born DG neurons (white arrows) co-expressing NeuN^+ and BrdU^+. […] Scale bar=100 μm.
(§4) Adult male Lister-hooded rats (n=12/group) were given daily injections of either saline or ghrelin (10 μg/kg i.p) (days 1-14) and BrdU (50 mg/kg i.p) on days 5-8 prior to analysis of spatial pattern separation using a spontaneous location recognition task (SLR) on days 22-26.
To reduce/avoid the acute LTP-mediated effects on pattern separation the final injection of ghrelin was given 7 days before the start of cognitive testing.

[4] = system: new adult-born DG neurons; assay: New adult-born neurons (BrdU+/NeuN+) and neuroblasts (DCX+) in rat DG; assay type: in vivo; settings: rats; for total number of new adult-born neurones (BrdU+/NeuN+) in the DG: 10 μg/kg i.p daily days 1-14, BrdU days 5-8, vs saline
Method: as §4
Animals were anesthetized with sodium pentobarbital and perfused transcardially with 0.9% NaCl solution, followed by 4% paraformaldehyde (PFA) in 0.1M phosphate buffer, pH 7.4. Brains were post-fixed in 4% PFA for 24 h, and cryoprotected in 30% sucrose for 24 h. The brains were then sectioned on a freezing-stage microtome into a 30 μm thick coronal section series. Immunohistochemical staining was performed on free-floating sections.
For detection of BrdU, sections were pre-treated with 2N HCl for 30 mins at 37° C. and washed in 0.1 M borate buffer, pH8.5, for 10 min. Immunofluorescent double-labeling was performed.
Primary antibodies used were: mouse anti-BrdU (1:50 AbD Serotec, UK), goat anti-doublecortin (Santa Cruz Biotechnology, USA), mouse anti-NeuN (Chemicon, Temecula, Calif., USA). Sections were also stained with Hoechst (Invitrogen) and mounted with prolong-gold anti-fade reagent (Invitrogen).
A one-in-twelve series of 30 μm sections (360 μm apart) from each animal was immunohistologically stained (as described in Example 1 above) and analysed by fluorescent and/or confocal microscopy. Immunolabelled cells were counted also as described in Example 1. Only cells with complete/strong BrdU immunoreactivity, oval nuclei, were counted.

[5] = rats; 10 μg/kg i.p; cited from earlier work

For “UAG: unacylated-ghrelin, the de-acylated form of ghrelin (GSSFLSPEHQRVQQRKESKKPPAKLQPR; Ghrelin-28 unacylated; UniProt Q9UBU3 24-51, looked up)”, the “Ki67+ cells (cell proliferation) in the DG of adult wild-type mice” value (“Ki67+ cells … of adult wild-type mice” below) [1] is listed as “impairments observed in hippocampal cell proliferation; also recorded: reduced the number of dividing cells; also recorded: attenuated hippocampal cell proliferation”, the “number of immature DCX+ neurons within the SGZ” value [2] is listed as “impairments; also recorded: reduced; also recorded: significant reduction in the number of immature DCX^+ neurons” and the “binding or activation of Ghsr” value (Ghsr) is listed as “does not bind or activate Ghsr”.
For “ghrelin: gut hormone, 28 amino acid peptide with octanoyl modification on Ser-3; endogenous ligand of GHS-R 1a (GSS(Octanoyl)FLSPEHQRVQQRKESKKPPAKLQPR; UniProt Q9UBU3 24-51, looked up)”, the “number of BrdU+ cells in adult rat hippocampus” value (adult rat hippocampus) was “increased the number of BrdU^+ cells”, the “Ki67+ cells (cell proliferation) in the DG of ghsr-/- mice” value ([1]; ghrelin-receptor null (ghsr-/-) mice) was “no corresponding increase was observed; also recorded: inhibited the proliferative effect of ghrelin” and the “Ki67+ cells … of adult wild-type mice” value [1] was “increased Ki67^+ cells”. The “Ki67+ cells … of adult wild-type mice” value ([1]; listed as Ghrelin) was “significant increase in cell proliferation”, the “SLR task, discrimination of 'novel' location, X-small separation condition (pattern separation)” value [3] was “only ghrelin treated rats showed enhanced exploratory behaviour; also recorded: able to distinguish between very similar spatial locations” and the “SLR task, discrimination of 'novel' location, small separation condition” value [3] was “enhanced exploratory behaviour for the ‘novel’ location in the small separation condition; also recorded: able to distinguish similar but distinct spatial locations”. The “SLR task, discrimination of 'novel' location, X-small separation condition (pattern separation)” value ([3]; listed as acyl-ghrelin) was “improved pattern separation learning”, the “total number of new adult-born neurones (BrdU+/NeuN+) in the DG” value (shortened to “total number of new adult-born neurones”) [4] was “significantly increased” and the “total number of new adult-born neurones” value ([4]; listed as Ghrelin) was “significantly increased the number of new adult-born neurons”. For the same substance, the “total number of new adult-born neurones” value ([4]; listed as acyl-ghrelin) was “increased the number of new adult born neurons”, the “DG neuroblast number (DCX+)” value ([4]; 14 days after the final injection, data not shown) was “remained significantly higher” and the food intake [5] was “increase food intake”.
